Experimental findings from patent US6482849B1, “Inhibitors of α4β1 mediated cell adhesion” (Tanabe Seiyaku Co., Ltd., priority 1997, dated 2002) are described below.

For data set [1], the target named is T1, α4β1 integrin (Jurkat T-cell adhesion to IL-1 stimulated endothelial cell monolayers) (Homo sapiens, UniProt P05556+P13612).
T1 construct: a T-cell line, Jurkat, known to express the α4β1 integrin; host or cells: Jurkat T-cell line
As to the kind of experiment: Jurkat-Endothelial Cell Adhesion Assay (Jurkat EC). The following applies: Jurkat cells on IL-1 stimulated HUVEC monolayers. It is filed as cell-based. In outline: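 BCECF-loaded Jurkat cells (5×10^5) mixed with compound (generally 100, 20, 5 and 1.25 μM) and added to HUVEC monolayers prestimulated 4 hr with 0.1 ng/ml IL-1, in DMEM-HSA. After 5 min on ice and 20 min at 37° C, washed; fluorescence gives % adhesion relative to no-compound control set at 100%.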

For data set [2], the system named is VLA-4 integrin-dependent eosinophil infiltration. As to the kind of experiment: Dextran pleurisy model (dextran-induced pleural leukocyte infiltration). It is filed as in vivo, C57BL/6 mice. The following applies: 4 h post-induction; for change in vivo at 50 mg/kg / change in vivo at 25 mg/kg: Mus musculus; for change in vivo at 25 mg/kg: 25 mg/kg × 2 iv (0h,+1h relative to dextran). As to the method: C57BL/6 mice (Jackson, Bar Harbor, Me.;), 6-8 weeks old, weighing 20-25 g were used throughout. All mice were acclimated for at least 7-14 days after arrival and maintained under controlled temperature (20-22° C.) and a 12 hr daily light cycle (6.00 A.M.-6.00 P.M.). Mice were housed in laminar flow racks and checked biweekly for viral infections (mouse hepatitis virus, minute virus of mice, rodent orphan parvovirus, Sendai) with kits obtained from Oreganon Teknika (Durham, N.C.) using established enzyme-linked immunoabsorbent assays. Mice testing positive for any of the above were omitted from the study. All mice were fed standard laboratory chow (Upjohn Lab Rodent Irradiated Mouse Chow, #5011-3, PMI Feeds, St. Louis, Mo.) and acidified drinking water (pH 5.0) ad libitum.
Intrapleural injections were made using a 27 G needle cut to 3-4 mm and blunted by filing. Injections were made by inserting the needle between the mid-intercostal ribs on the right side of the thoracic cavity.
Dextran (MW 5-40×10^6, St Louis, Mo.) was injected as a 10% solution in saline in a volume of 100 μl/mouse. Care was taken to avoid bleeding at the site of injection at which the intercostal muscles were cut to facilitate smooth insertion of the needle.
Pleural leukocytes were collected as follows: 4 h post-induction, pleural inflammatory exudate was removed by washing with 2×1.0 ml Ca^++/Mg^++ free HBSS (Gibco, Grand Island, N.Y.) containing 45 mg EDTA/100 ml HBSS, 4° C. Total leukocyte counts were made by hemocytometer following erythrocyte lysis in 2% acetic acid in PBS buffer; exudate leukocyte pellets were resuspended in serum for cytospin preparations and stained (Diff Quik, Baxter Healthcare, McGraw Park, Ill.) for differential leukocyte counts (neutrophils, eosinophils, and mononuclear leukocytes).
The pleural cavities of mice receiving either no intrapleural injection, or saline were washed and the cells counted in the same way to estimate baseline or saline-induced pleural leukocyte counts respectively.
All drugs were dissolved in PBS and the pH adjusted to 7.5 with NaOH. Each drug was administered intravenously through the retroorbital sinus at hourly intervals (0-3 h) starting from time “0” as indicated.
The following camphoric acid analogues were tested for their inhibitory effects on dextran-induced leukocyte infiltration: Examples 4, 12, 54, 63, 166, 93, 180, 181, 183, 184, 217, Camphoric acid or PBS (saline) was administered iv. as a control. Inhibition of eosinophil infiltration, which was suppressed by anti-alpha-4 Mab (PS/2, 50%), was used as a readout of VLA-4 antagonist activity of the camphoric acids tested. Data for neutrophils are also reported.

Data set [3] concerns the target T2, α4β1 integrin (Jurkat cell adhesion to immobilized CS-1 derived peptide CLHPGEILDVPST) (Homo sapiens, UniProt P05556+P13612).
T2 construct: 100 μl of Jurkat cells (2.5×10^6 cells/ml) in DMEM plus BSA; endogenous in cells; host or cells: Jurkat T-cell line
As to the kind of experiment: Jurkat-CS-1 Assay. It is filed as cell-based. The following applies: Jurkat cells on CS-1 peptide coated plates. In outline:
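CS-1 peptide was SPDP-crosslinked onto HSA-coated plates and blocked with BSA. Jurkat cells (2.5×10^6 cells/ml) in DMEM/BSA were mixed with compound, generally at 100, 20, 5 and 1.25 μM, and allowed to adhere for 1 hr at 37° C. Bound cells were fixed, stained with toluidine blue and quantified by OD590.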

Where [4] appears, read: 50 mg/kg × 2 iv (0h,+1h relative to dextran).
The mark [5] stands for this setting: 50 mg/kg × 4 iv (0h,+1h,+2h,+3h relative to dextran).
Setting [6] is: Eosinophil, 50 mg/kg × 2 iv (0h,+1h relative to dextran), read-out: %Δ Pleural Leukocytes, Eos.
Setting [7] is: Neutrophil, 50 mg/kg × 2 iv (0h,+1h relative to dextran), read-out: %Δ Pleural Leukocytes, Neutro.
Setting [8] is: Eosinophil, read-out: %Δ Pleural Leukocytes, Eos.
Where [9] appears, read: Neutrophil, read-out: %Δ Pleural Leukocytes, Neutro.

Read-outs that look alike come from different tables or passages of the source. Some results are limits rather than exact numbers.

By IC50 is commonly meant the concentration that inhibits the measured activity by half. A lower IC50 goes with higher potency. Usually melting point stands for the temperature of the solid-liquid transition.

T1 sequence (P13612 34-1032): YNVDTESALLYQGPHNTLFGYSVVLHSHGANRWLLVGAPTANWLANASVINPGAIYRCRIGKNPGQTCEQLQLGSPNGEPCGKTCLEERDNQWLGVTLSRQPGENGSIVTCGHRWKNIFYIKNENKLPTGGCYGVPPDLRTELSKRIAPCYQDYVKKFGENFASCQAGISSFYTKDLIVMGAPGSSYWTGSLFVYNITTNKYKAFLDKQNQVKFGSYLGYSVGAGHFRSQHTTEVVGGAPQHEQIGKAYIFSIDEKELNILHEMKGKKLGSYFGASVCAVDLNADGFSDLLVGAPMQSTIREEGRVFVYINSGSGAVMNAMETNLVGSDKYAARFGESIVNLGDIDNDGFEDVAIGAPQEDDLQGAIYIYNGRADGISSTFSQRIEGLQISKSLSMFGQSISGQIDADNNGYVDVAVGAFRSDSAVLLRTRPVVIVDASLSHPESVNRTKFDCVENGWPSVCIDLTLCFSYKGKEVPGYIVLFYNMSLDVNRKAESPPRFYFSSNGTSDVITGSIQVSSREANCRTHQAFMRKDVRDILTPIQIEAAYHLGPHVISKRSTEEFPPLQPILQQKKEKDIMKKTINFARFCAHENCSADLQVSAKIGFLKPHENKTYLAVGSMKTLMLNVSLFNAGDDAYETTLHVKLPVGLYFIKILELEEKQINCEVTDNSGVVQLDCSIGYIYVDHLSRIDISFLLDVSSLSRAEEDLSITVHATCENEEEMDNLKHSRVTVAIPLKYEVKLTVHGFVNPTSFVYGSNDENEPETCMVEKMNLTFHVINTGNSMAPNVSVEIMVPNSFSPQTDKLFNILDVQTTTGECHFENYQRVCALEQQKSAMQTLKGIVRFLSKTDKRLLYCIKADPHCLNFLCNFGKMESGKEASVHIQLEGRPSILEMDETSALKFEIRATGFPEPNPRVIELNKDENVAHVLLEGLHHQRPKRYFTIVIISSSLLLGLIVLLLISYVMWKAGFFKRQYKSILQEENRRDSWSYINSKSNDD
T1 sequence (P05556 21-798): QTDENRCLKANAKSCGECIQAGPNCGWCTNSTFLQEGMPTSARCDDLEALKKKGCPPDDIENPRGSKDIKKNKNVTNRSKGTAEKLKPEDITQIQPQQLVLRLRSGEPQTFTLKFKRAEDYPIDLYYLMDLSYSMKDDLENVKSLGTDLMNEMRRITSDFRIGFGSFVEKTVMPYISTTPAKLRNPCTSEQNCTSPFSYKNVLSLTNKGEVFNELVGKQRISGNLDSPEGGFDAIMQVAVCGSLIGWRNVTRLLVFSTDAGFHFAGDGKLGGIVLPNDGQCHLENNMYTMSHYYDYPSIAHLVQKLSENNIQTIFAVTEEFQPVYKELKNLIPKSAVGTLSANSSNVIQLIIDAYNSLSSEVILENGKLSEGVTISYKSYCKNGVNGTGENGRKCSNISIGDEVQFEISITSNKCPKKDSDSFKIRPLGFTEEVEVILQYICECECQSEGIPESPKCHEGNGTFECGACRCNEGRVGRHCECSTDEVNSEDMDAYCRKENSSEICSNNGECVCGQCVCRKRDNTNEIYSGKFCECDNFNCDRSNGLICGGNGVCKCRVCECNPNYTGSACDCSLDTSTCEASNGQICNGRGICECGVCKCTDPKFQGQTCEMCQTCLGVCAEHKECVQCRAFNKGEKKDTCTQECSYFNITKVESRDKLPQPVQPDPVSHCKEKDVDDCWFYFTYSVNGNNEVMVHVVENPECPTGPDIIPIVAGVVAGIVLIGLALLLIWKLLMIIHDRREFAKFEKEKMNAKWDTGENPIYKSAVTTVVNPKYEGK
T2 sequence (P13612 34-1032): as the sequence (P13612 34-1032) above
T2 sequence (P05556 21-798): as the sequence (P05556 21-798) above

On to `CC1(C)[C@@H](C(=O)N[C@@H](Cc2ccc(OCc3c(Cl)cccc3Cl)cc2)C(=O)O)CC[C@@]1(C)C(=O)O` (relative stereo) [Example 12, (1S-cis)-N-[(3-Carboxy-2,2,3-trimethylcyclopentyl)carbonyl]-O-[(2,6-dichlorophenyl)methyl]-L-tyrosine], for which the IC50 is at most 800 nM in data set [1] and at most 80 nM in data set [3]. Further, the “%Δ Pleural Leukocytes, Eos” value in data set [2] (setting [4]) and in data set [2] (setting [5]) was “A (A≦−50)” throughout. In addition, the “%Δ Pleural Leukocytes, Neutro” value in data set [2] (setting [4]) and in data set [2] (setting [5]) was “B (−50<B<−10)” in each case.
With `CC1(C)[C@@H](C(=O)N[C@@H](Cc2cn(Cc3ccc(Cl)c(Cl)c3)cn2)C(=O)O)CC[C@@]1(C)C(=O)O` [Example 4, (1S-cis)-N-[(3-Carboxy-2,2,3-trimethylcyclopentyl)carbonyl]-1-[(3,4-dichlorophenyl)methyl]-L-histidine], the melting point is 148 to 149 °C (dec.). For the same molecule, the IC50 in data set [1] was 800 to 5000 nM. The change in vivo at 50 mg/kg in data set [2] (setting [6]) is at most -50%. Further, the change in vivo at 50 mg/kg in data set [2] (setting [7]) is -50 to -10%. The same molecule gave a 50% inhibitory concentration (IC50) in data set [3] of 80 to 500 nM.
For `CC1(C)[C@@H](C(=O)N[C@@H](Cc2ccc(NC(=O)c3c(Cl)cccc3Cl)cc2)C(=O)O)CC[C@@]1(C)C(=O)O` [Example 54, (1S-cis)-N-[(3-Carboxy-2,2,3-trimethylcyclopentyl)carbonyl]-4-[(2,6-dichlorobenzoyl)amino]-L-phenylalanine], the melting point was 231 to 233 °C. The IC50 in data set [1] is at most 800 nM. Also, the change in vivo at 50 mg/kg in data set [2] (Eosinophil, 50 mg/kg × 4 iv (0h,+1h,+2h,+3h relative to dextran), read-out: %Δ Pleural Leukocytes, Eos) is at most -50%. The change in vivo at 50 mg/kg in data set [2] (Neutrophil, 50 mg/kg × 4 iv (0h,+1h,+2h,+3h relative to dextran), read-out: %Δ Pleural Leukocytes, Neutro) was -50 to -10%. This molecule yielded an IC50 in data set [3] of at most 80 nM.
As to `CC1(C)[C@@H](C(=O)N[C@@H](Cc2ccc(OCc3c(Cl)cccc3Cl)c([N+](=O)[O-])c2)C(=O)O)CC[C@@]1(C)C(=O)O` [Example 63], the melting point lay within 92 to 94 °C. The same molecule had a half-maximal inhibitory concentration (IC50) in data set [1] of 800 to 5000 nM. Moreover, the change in vivo at 25 mg/kg in data set [2] (setting [8]) is -50 to -10%. Besides, the change in vivo at 50 mg/kg in data set [2] (setting [6]) was -50 to -10%. The change in vivo at 25 mg/kg in data set [2] (setting [9]) was -50 to -10%. In addition, the change in vivo at 50 mg/kg in data set [2] (setting [7]) is -50 to -10%. Further, the IC50 in data set [3] is at most 80 nM.
For the molecule `CC1(C)[C@@H](C(=O)N[C@@H](Cc2ccc(NC(=O)c3c(Cl)cc(Cl)cc3Cl)cc2)C(=O)O)CC[C@@]1(C)C(=O)O` [Example 93], the IC50 is at most 800 nM in data set [1] and at most 80 nM in data set [3]. In addition, the change in vivo at 50 mg/kg in data set [2] (setting [6]) is -50 to -10%; in data set [2] (setting [7]), -10 to 0%.
As to `CC1(C)[C@@H](C(=O)N[C@@H](Cc2ccc(NC(=O)c3c(Cl)cccc3Cl)cc2)C(=O)O)CC[C@@]1(C)C(=O)NCC(=O)O` [Example 181, (1S-cis)-N-[[3-[[(Carboxymethyl)amino]carbonyl]-2,2,3-trimethylcyclopentyl]carbonyl]-4-[(2,6-dichlorobenzoyl)amino]-L-phenylalanine], the IC50 in data set [1] was at most 800 nM; in data set [3], at most 80 nM. The change in vivo at 25 mg/kg in data set [2] (setting [8]) and in data set [2] (setting [9]) was -50 to -10% throughout. Moreover, the change in vivo at 50 mg/kg in data set [2] (setting [6]) and in data set [2] (setting [7]) was -50 to -10% in each case.
Take `CC1(C)[C@@H](C(=O)N[C@@H](Cc2ccc(NC(=O)c3c(Cl)cccc3Cl)cc2)C(=O)O)CC[C@@]1(C)C#N` [Example 184, (1S-cis)-N-[[3-Cyano-2,2,3-trimethylcyclopentyl]carbonyl]-4-[(2,6-dichlorobenzoyl)amino]-L-phenylalanine]: the values for the IC50 in data set [1] and in data set [3] were at most 800 nM and at most 80 nM, respectively. Besides, the change in vivo at 25 mg/kg in data set [2] (setting [8]) and in data set [2] (setting [9]) was -50 to -10% each time. Also, the change in vivo at 50 mg/kg in data set [2] (setting [6]) was at most -50%; in data set [2] (setting [7]), -50 to -10%.
Take `CC1(C)[C@@H](C(=O)N[C@@H](Cc2ccc(NC(=O)c3c(Cl)cccc3Cl)cc2)C(=O)O)CC[C@@]1(C)C(=O)NOCc1ccccc1` [Example 217]: the IC50 in data set [1] was at most 800 nM; in data set [3], at most 80 nM. For the same molecule, the figures for the change in vivo at 50 mg/kg in data set [2] (setting [6]) and in data set [2] (setting [7]) were -50 to -10% and -10 to 0%, respectively.
